System: mouse embryonic fibroblasts (MEF)
Experiment: tunicamycin ER stress response in MEFs (XBP-1 models)
Type: cell-based
Description: ER stress responses in XBP-1s overexpressing cells, XBP-1^−/− cells and their controls. (A) Induction of XBP-1s expression upon removal of doxycycline in mouse embryonic fibroblasts (MEF). (B) Southern blot analysis of XBP-1^−/− MEF cells and their WT controls for the wild type (9.4 kb) and targeted (6.5 kb) alleles. (C) PERK phosphorylation (p-PERK) and JNK activity in the XBP-1s overexpressing cells and their control cells (−Dox and +Dox, respectively) upon tunicamycin treatment (Tun, 2 μg/ml). (D) PERK phosphorylation and JNK activity upon low dose tunicamycin treatment (Tun, 0.5 μg/ml) in XBP-1^−/− MEF cells and their WT controls. (E) IRS-1 Ser307 phosphorylation upon tunicamycin treatment (Tun, 2 μg/ml) in the XBP-1s overexpressing and the control cells (−Dox and +Dox, respectively), detected using immunoprecipitation (IP) of IRS-1 followed by immunoblotting (IB) with an IRS-1 phosphoserine 307-specific antibody. […] The ratio of IRS-1 tyrosine phosphorylation to total IRS-1 level was summarized from independent experiments and was presented in the graph. (G) IRS-1 Ser307 phosphorylation upon tunicamycin treatment (Tun, 0.5 μg/ml) in XBP-1^−/− cells and WT controls was detected as described in […]. […] (H) Insulin-stimulated tyrosine phosphorylation of IRS-1 in XBP-1^−/− and WT control cells with or without tunicamycin treatment (Tun, 0.5 μg/ml). The ratio of IRS-1 tyrosine phosphorylation to total IRS-1 level was summarized from independent experiments and presented in the graph. All graphs show mean±SEM from at least 2 independent experiments and statistically significance from the controls is indicated by * with p<0.005.
The transcription factor XBP-1 is a bZIP protein. The spliced or processed form of XBP-1 (XBP-1s) is a key factor in the transcriptional regulation of molecular chaperones and enhances the compensatory UPR (Calfon et al., Nature 415, 92 (2002); Shen et al., Cell 107:893 (2001); Yoshida et al., Cell 107:881 (2001); Lee et al., Mol. Cell Biol. 23:7448 (2003); each of which is incorporated herein by reference). We therefore reasoned that modulation of XBP-1s levels in cells should alter insulin action via its potential impact on the magnitude of the ER stress responses. To test this possibility, we established XBP-1 gain- and loss-of-function cellular models. First, we established an inducible gene expression system where exogenous XBP-1s is expressed only in the absence of tetracycline/doxycycline (FIG. 13A). In parallel, we also studied MEFs derived from XBP-1^−/− mouse embryos (Lee et al., Mol. Cell Biol. 23, 7448 (2003); A. M. Reimold et al., Genes Dev. 14, 152 (2000); Reimold et al., Nature 412, 300 (2001); each of which is incorporated herein by reference) (FIG. 13B). […] Upon induction of XBP-1s expression, there was a dramatic reduction in both PERK phosphorylation and JNK activation following tunicamycin treatment (FIG. 13C). […] Thus alterations in the levels of cellular XBP-1s protein result in alterations in the ER stress response.
Cells: Rat Fao liver cells were cultured with RPMI 1640 (Gibco, Grand Island, N.Y.) containing 10% fetal bovine serum (FBS). At 70-80% confluency, cells were serum depleted for 12 hours before starting the experiments. Reagents including tunicamycin, thapsigargin, and JNK inhibitors were gently added to the culture dishes in the incubator to prevent any environmental stress. JNK inhibitors were added 1 hour before tunicamycin/thapsigargin treatment. The XBP-1^−/− mouse embryonic fibroblasts (MEF) (A. H. Lee, N. N. Iwakoshi, L. H. Glimcher, Mol. Cell. Biol. 23:7448 (2003); incorporated herein by reference), IRE-1α^−/− MEF cells (kindly provided by Dr. David Ron, New York University School of Medicine), and their wild type controls were cultured in Dulbecco's Modified Eagle Medium (DMEM) (Gibco, Grand Island, N.Y.) containing 10% FBS. A similar protocol was followed for experiments in MEF cells, except that the cells were serum depleted for only 6 hours. […]

[1] = fibroblasts without exogenous XBP-1s expression, 2 μg/ml

In the case of tunicamycin, the ER stress (WT cells, low dose 0.5 μg/ml) is reported as “failed to stimulate significant ER stress”, the ER stress response (XBP-1−/− MEFs, low dose 0.5 μg/ml) is reported as “strong ER stress response” and the PERK phosphorylation [1] is reported as “strong PERK phosphorylation”. The “PERK phosphorylation, peak” value [1] was 3 to 4 h, the “PERK phosphorylation, start” value [1] was 30 min and the “activation of JNK” value [1] was “rapid and robust activation”.

From patent publication US20100075894A1, “REDUCING ER STRESS IN THE TREATMENT OF OBESITY AND DIABETES” (HARVARD UNIVERSITY, priority 2004, published 2010)
